Measurements: article PMC8333425, “Discovery of a dual Ras and ARF6 inhibitor from a GPCR endocytosis screen” (Nature Communications, 2021)
Where “and” joins values, the source holds several entries; their conditions need not be identical. Equal values may be shown once.

Molecular target: T1, β-arrestin/AP-2 complex (Homo sapiens, UniProt P63010)
T1 construct: expressed in transfected cells; host or cells: HEK293SL
T1 sequence (P63010 1-937): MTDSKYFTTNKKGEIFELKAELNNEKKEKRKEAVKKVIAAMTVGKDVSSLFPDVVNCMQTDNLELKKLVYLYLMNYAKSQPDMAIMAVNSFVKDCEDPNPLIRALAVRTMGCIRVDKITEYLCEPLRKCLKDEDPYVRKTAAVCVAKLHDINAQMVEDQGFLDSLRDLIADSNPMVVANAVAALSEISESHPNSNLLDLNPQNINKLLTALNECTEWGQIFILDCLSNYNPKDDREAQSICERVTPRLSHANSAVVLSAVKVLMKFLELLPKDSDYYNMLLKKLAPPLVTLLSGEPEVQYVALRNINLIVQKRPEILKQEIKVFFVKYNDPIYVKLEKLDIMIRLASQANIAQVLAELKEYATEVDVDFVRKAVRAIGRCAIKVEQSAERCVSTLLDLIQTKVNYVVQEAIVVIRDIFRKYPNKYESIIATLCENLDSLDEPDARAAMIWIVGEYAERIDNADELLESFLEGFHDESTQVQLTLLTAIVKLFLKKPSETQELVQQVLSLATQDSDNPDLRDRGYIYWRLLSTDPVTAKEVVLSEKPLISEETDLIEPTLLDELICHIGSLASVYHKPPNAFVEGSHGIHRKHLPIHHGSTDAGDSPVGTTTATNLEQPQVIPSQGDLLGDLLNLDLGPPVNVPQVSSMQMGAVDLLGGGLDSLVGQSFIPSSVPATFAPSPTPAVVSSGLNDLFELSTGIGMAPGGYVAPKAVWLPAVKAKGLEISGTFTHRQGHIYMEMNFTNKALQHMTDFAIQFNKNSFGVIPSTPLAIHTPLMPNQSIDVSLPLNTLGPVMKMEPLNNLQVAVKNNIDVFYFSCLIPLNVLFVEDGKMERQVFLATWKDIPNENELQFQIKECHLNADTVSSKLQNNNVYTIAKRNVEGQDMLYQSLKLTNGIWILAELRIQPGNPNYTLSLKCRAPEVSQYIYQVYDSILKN
Assay: BRET sensor of β-arrestin2 binding to AP-2 (β2-Adaptin-YFP), AT1R-mediated
Format: cell-based
Conditions: for AngII-promoted BRET, binding of β-arrestin2 to AP-2: individual experiments
Protocol: HEK293 cells were transfected with a BRET sensor that monitors the interaction between β-arrestins and the β-appendage of AP-2 (Fig. 2a)[26],[33]. […] The small GTPase ARF6, which binds β-arrestins and facilitates AP-2 and clathrin recruitment at the PM, is also necessary for CCPs initiation and receptor internalization. Therefore, ARF6 activity was assessed using the protein-3 binding domain (PBD) of the golgi-associated, gamma adaptin ear-containing, ARF-binding protein 3 (GGA3) fused to GST (GST-GGA3-PBD) in a pull-down assay, which allows the detection of GTP-bound ARF6 in cells[34] (Fig. 2b). […] This inhibition was selective for ARF6 since 21 had no effect on AT1R-dependent ARF1 activation (Supplementary Fig. 2a). We also devised a BRET assay to quantitatively assess 21’s action on ARF activity. The ARF BRET assay was created using the GGA3-PBD fused to RlucII (GGA3-PBD-RlucII) and the rGFP anchored at the PM (rGFP-CAAX) (Supplementary Fig. 3a). […] 21 blocked ARF’s activation by 40–60% following AT1R stimulation (Fig. 2c).
HEK293SL cells were seeded at a density of 7.5 × 10^5 cells per 100-mm dish and 24 h later, transiently transfected as such. For receptor internalization experiments, cells were transfected with 0.12 μg AT1R-RlucII, B2R-RlucII, or β2AR-RlucII and 0.48 μg of either rGFP-CAAX (to assess removal from the PM) or rGFP-FYVE (to assess accumulation in the endosomes). For β-arrestin recruitment assays, cells were transfected with 0.48 μg of receptor-YFP along with 0.12 μg of β-arrestin-RlucII. For β-arrestin/AP-2 binding experiments, cells were transfected with 1 μg Flag-AT1R, 1 μg β2-Adaptin-YFP, and 0.12 μg β-arrestin2-RlucII. For G protein activation, cells were transfected with 3 μg of sp-Flag-AT1R along with either 4.5 μg of the Gαq-polycistronic BRET sensor or 0.24 μg of the Gαi3-RlucII and 0.6 μg of GFP10-Gγ2 and Gβ1 sensors or 0.12 μg PKN-RBD-RlucII and 0.48 μg of rGFP-CAAX. For PKC activation, cells were transfected with 3 μg of sp-Flag-AT1R and 0.18 μg of the PKC sensor. For GTPase activation experiments, cells were transfected with 1 μg Flag-AT1R, 0.48 μg of rGFP-CAAX, and either 0.12 μg of GGA3-PBD-RlucII, PAK-CRIB-RlucII or Raf-RBD-RlucII. For biosensor validation experiments, cells were additionally transfected with 500 ng Flag-K-Ras-WT, Flag-K-Ras-G12V, Flag-K-Ras-SOS-CAAX, HA-ARF6-WT, HA-ARF6-T27N, Myc-Rac1-WT, Myc-Rac1-Q61L or Myc-Rac1-T17N. For PI3K/Akt activation experiments, cells were transfected with 0.48 μg of rGFP-CAAX and 0.12 μg of Akt (PH)-RlucII. After 18 h of transfection, the media was replaced and cells were divided for subsequent experiments. Cells were detached and seeded onto poly-L-ornithine-coated 96-well flat white bottom plates (BrandTech Scientific) at a density of 2.5 × 10^4 cells per well in media. The next day, cells were washed once with Tyrode’s buffer (140 mM NaCl, 2.7 mM KCl, 1 mM CaCl2, 12 mM NaHCO3, 5.6 mM D-glucose, 0.5 mM MgCl2, 0.37 mM NaH2PO4, 25 mM HEPES, pH 7.4) and left in Tyrode’s buffer. For kinetics of β-arrestin recruitment or β-arrestin binding to receptor and AP-2 experiments, cells were serum starved for 30 min, pretreated with 21 (50 µM) or Barbadin (100 µM) for 30 min, stimulated with 100 nM AngII or 1 µM BK and BRET signals were monitored at indicated times using a Victor X Light plate reader (PerkinElmer). Coelenterazine H (final concentration of 5 µM) was added 3–5 min prior to BRET measurements. Filter set was 460/80 nm and 535/30 nm for detecting the RlucII Renilla luciferase (donor) and YFP (acceptor) light emissions, respectively. The BRET ratio was determined by calculating the ratio of the light emitted by YFP over the light emitted by the RlucII. For G protein activation, cells were serum starved, pretreated with compounds for 30 min, stimulated with 100 nM AngII for 2 min (Gαq, Gαi3, and Rho sensors) or 5 min (PKC sensor). […]

| AngII-promoted BRET, binding of β-arrestin2 to AP-2 (AngII + Barbadin (100 μM), time 0 min) | AngII-promoted BRET, binding of β-arrestin2 to AP-2 (AngII + Barbadin (100 μM), time 2 min) | AngII-promoted BRET, binding of β-arrestin2 to AP-2 (AngII + Barbadin (100 μM), time 4 min) | AngII-promoted BRET, binding of β-arrestin2 to AP-2 (AngII + Barbadin (100 μM), time 8 min) | AngII-promoted BRET, binding of β-arrestin2 to AP-2 (AngII + Barbadin (100 μM), time 12 min) | AngII-promoted BRET, binding of β-arrestin2 to AP-2 (AngII + Barbadin (100 μM), time 20 min) | AngII-promoted BRET, binding of β-arrestin2 to AP-2 (AngII + Barbadin (100 μM), time 24 min) | inhibition of the formation of the β-arrestin/AP-2 complex mediated by AT1R (Barbadin 100 µM) | Structure (SMILES) | inhibition at 50 µM (21 at 50 µM, read-out: inhibition of the AngII-mediated β-arrestin/AP-2 complex formation) [%] | AngII-promoted BRET, binding of β-arrestin2 to AP-2 (AngII + Comp 21 (50μM), time 0 min) | AngII-promoted BRET, binding of β-arrestin2 to AP-2 (AngII + Comp 21 (50μM), time 2 min) | AngII-promoted BRET, binding of β-arrestin2 to AP-2 (AngII + Comp 21 (50μM), time 4 min) | AngII-promoted BRET, binding of β-arrestin2 to AP-2 (AngII + Comp 21 (50μM), time 8 min) | AngII-promoted BRET, binding of β-arrestin2 to AP-2 (AngII + Comp 21 (50μM), time 12 min) | AngII-promoted BRET, binding of β-arrestin2 to AP-2 (AngII + Comp 21 (50μM), time 20 min) | AngII-promoted BRET, binding of β-arrestin2 to AP-2 (AngII + Comp 21 (50μM), time 24 min) |
| --- | --- | --- | --- | --- | --- | --- | --- | --- | --- | --- | --- | --- | --- | --- | --- | --- |
|  |  |  |  |  |  |  |  | CC(C)C(=O)N1CCN(c2ccc(NC(=O)c3cc4ccccc4o3)cc2Cl)CC1 [Compound 21] | ≤ 20 | 0 | 0.0291 and 0.02266 and 0.02708 | 0.03981 and 0.03342 and 0.03976 | 0.0471 and 0.04211 and 0.04647 | 0.04695 and 0.03931 and 0.04772 | 0.04571 and 0.04297 and 0.04991 | 0.04875 and 0.04367 and 0.04987 |
| 0 | 0.00931 and 0.01844 and 0.00859 | 0.01939 and 0.02951 and 0.01857 | 0.01773 and 0.0324 and 0.02267 | 0.01829 and 0.0336 and 0.02027 | 0.02374 and 0.03345 and 0.02061 | 0.01867 and 0.03563 and 0.02365 | more than 50% | Nn1cnc2scc(-c3ccc(Cc4ccccc4)cc3)c2c1=O [Barbadin, reference compound] |  |  |  |  |  |  |  |  |
